Laboratory results published in ChEMBL document CHEMBL4673352, “Discovery of AZD4573, a Potent and Selective Inhibitor of CDK9 That Enables Short Duration of Target Engagement for the Treatment of Hematological Malignancies” (J Med Chem, 2020).
Converted amounts (≈) assume the structure as drawn.

Tests used:
[1] = target: Glycogen synthase kinase-3 alpha (Homo sapiens, UniProt P49840); assay: Inhibition of GSK3alpha (unknown origin) in presence of 5 mM ATP
[2] = Clearance in Beagle dog plasma at 0.23 umol/kg, iv administered over 0.25 hrs formulated as solution in 10% DMSO/90% water; format: ADME, organism-based, Canis lupus familiaris; conditions: dose 0.23 µmol/kg
[3] = target: Mitogen-activated protein kinase kinase kinase 9 (Homo sapiens) (UniProt P80192); assay: Inhibition of human recombinant MAP3K9 using casein as substrate at 1 uM incubated for 40 mins in presence of [gamma32P]-ATP by scintillation counting method relative to control
Chain of Mitogen-activated protein kinase kinase kinase 9 (Homo sapiens) (P80192 whole entry, looked up): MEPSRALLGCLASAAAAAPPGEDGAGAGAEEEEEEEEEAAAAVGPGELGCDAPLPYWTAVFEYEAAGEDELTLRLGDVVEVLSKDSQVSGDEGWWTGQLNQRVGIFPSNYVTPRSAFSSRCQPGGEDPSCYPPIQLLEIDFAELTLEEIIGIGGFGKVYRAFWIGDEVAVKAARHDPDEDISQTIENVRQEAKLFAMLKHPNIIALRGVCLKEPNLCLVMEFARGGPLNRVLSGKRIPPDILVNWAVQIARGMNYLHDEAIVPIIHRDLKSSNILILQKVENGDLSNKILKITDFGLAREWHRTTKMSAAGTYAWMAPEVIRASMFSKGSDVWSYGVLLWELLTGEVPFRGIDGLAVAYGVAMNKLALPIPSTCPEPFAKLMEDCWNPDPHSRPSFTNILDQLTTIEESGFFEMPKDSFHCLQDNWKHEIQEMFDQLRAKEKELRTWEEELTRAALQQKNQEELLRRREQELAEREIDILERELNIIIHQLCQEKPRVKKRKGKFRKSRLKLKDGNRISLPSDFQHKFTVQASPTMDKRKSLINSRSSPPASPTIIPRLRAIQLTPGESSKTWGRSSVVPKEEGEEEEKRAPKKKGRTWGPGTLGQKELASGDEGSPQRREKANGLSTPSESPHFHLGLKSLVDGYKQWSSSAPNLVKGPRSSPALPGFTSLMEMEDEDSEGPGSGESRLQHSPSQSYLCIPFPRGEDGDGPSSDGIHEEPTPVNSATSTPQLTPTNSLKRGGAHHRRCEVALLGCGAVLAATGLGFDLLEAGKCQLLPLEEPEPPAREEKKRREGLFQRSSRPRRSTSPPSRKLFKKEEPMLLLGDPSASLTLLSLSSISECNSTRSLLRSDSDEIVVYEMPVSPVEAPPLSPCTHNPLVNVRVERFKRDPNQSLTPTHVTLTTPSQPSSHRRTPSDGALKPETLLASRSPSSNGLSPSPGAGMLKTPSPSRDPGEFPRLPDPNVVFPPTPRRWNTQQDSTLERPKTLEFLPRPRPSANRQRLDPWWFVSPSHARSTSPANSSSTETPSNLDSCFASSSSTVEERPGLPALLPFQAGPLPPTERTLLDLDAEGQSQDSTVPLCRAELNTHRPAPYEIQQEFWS

[4] = Drug metabolism in human liver microsomes assessed as3-(4-(2-((1S,3R)-3-acetamidocyclohexanecarboxamido)-5-chloropyridin-4-yl)-1H-pyrazol-5-yl)-2,2-dimethylpropanoic acid formation at 10 uM measured after 1 hr in presence of NADPH by LC-UV-MS analysis; format: ADME, Microsome
[5] = Thermodynamic solubility of compound in pH 4 0.1 M acetate buffer using crystalline form of sample; format: physicochemical; conditions: read-out: Therm_solubility
[6] = Drug metabolism in human hepatocytes assessed as (1S,3R)-3-acetamido-N-(5-chloro-4-(6-hydroxy-5,5-dimethyl-5,6-dihydro-4H-pyrrolo[1,2-b]pyrazol-3-yl)pyridin-2-yl)cyclohexanecarboxamide metabolite formation; format: ADME, cell-based, Hepatocyte
[7] = Volume of distribution at steady state in cynomolgus monkey at 0.46 umol/kg, iv administered over 0.25 hrs formulated as solution in DMA/PEG400/Tween80; format: ADME, organism-based, Macaca fascicularis; conditions: in vivo, dose 0.46 µmol/kg, read-out: Vdss
[8] = Drug metabolism in human liver microsomes assessed as (1S,3R)-3-acetamido-N-(5-chloro-4-(5-(3-hydroxy-2,2-dimethylpropyl)-1H-pyrazol-4-yl)pyridin-2-yl)cyclohexanecarboxamide formation at 10 uM measured after 1 hr in presence of NADPH by LC-UV-MS analysis; format: ADME, Microsome
[9] = target: Dual specificity tyrosine-phosphorylation-regulated kinase 1A (Homo sapiens) (UniProt Q13627); assay: Inhibition of human recombinant full length GST-tagged DYRK1A expressed in baculovirus infected cells at 0.1 uM incubated for 60 mins by TR-FRET based LanthaScreen Eu kinase binding assay relative to control
[10] = target: Casein kinase I isoform gamma-2 (Homo sapiens, UniProt P78368); assay: Inhibition of CK1gamma2 (unknown origin) in presence of 5 mM ATP
Chain of Casein kinase I isoform gamma-2 (P78368 whole entry, canonical isoform): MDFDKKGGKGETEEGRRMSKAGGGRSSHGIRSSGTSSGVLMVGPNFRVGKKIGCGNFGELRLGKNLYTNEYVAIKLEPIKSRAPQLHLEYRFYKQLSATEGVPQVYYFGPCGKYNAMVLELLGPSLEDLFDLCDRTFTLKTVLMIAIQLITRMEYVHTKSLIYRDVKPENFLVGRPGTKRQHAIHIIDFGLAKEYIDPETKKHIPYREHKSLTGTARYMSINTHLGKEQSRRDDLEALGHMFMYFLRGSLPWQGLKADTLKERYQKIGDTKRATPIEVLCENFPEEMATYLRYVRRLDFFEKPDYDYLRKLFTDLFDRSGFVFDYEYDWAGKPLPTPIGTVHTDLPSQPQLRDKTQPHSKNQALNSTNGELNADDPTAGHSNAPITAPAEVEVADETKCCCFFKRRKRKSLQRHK

[11] = target: Dual specificity mitogen-activated protein kinase kinase 7 (Homo sapiens) (UniProt O14733); assay: Inhibition of human recombinant […] using NK1a1 as substrate at 1 uM incubated for 40 mins in presence of [gamma32P]-ATP by scintillation counting method relative to control
Chain of Dual specificity mitogen-activated protein kinase kinase 7 (Homo sapiens) (O14733 whole entry): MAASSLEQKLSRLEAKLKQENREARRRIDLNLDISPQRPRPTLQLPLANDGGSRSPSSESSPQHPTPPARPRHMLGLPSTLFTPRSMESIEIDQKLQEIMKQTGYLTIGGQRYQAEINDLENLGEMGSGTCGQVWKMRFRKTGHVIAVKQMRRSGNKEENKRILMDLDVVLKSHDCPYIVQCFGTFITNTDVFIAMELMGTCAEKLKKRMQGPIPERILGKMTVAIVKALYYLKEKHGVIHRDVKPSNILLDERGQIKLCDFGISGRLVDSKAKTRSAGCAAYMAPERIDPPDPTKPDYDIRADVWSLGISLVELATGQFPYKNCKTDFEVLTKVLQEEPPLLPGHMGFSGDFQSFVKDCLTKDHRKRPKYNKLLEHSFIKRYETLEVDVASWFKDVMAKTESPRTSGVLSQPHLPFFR

[12] = test system: NOMO-1; assay: Antitumor activity against human NOMO1 cells xenografted in CB17 SCID mouse assessed as tumor regression at 15 mg/kg, ip BID administered at 2 hrs dosing interval with 2 days on and 5 days off dosing schedule measured 12 days post initial dose; format: functional; conditions: time 12 day
[13] = target: Mitogen-activated protein kinase 8 (Homo sapiens, UniProt P45983); assay: Inhibition of JNK1 (unknown origin) in presence of 5 mM ATP
Chain of Mitogen-activated protein kinase 8 (P45983 whole entry, the tested form may be a part): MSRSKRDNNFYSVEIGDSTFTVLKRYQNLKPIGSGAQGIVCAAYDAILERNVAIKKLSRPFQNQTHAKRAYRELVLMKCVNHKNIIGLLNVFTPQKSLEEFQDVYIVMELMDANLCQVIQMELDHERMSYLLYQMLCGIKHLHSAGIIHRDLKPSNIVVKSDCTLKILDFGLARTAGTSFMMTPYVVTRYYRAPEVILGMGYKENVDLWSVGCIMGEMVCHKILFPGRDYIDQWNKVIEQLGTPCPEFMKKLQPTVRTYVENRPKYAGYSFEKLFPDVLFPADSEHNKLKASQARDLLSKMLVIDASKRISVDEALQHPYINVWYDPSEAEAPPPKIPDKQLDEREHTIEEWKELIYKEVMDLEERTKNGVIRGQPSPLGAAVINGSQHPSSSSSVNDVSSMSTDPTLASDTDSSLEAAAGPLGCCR

[14] = species on record: Homo sapiens; assay: Selectivity ratio of IC50 for CDK6 (unknown origin) in presence of 5 mM ATP to IC50 for Inhibition of recombinant full length human N-terminal GST-fused CDK9 (1 to 372 residues)/His-tagged CyclinT1 (1 to 726 residues) expressed in baculovirus infected insect cells
[15] = Volume of distribution at steady state in mouse at […], iv formulated as solution; format: ADME, organism-based; conditions: in vivo, read-out: Vdss
[16] = Clearance in mouse plasma at […], iv; format: ADME; conditions: dose 2.4 µmol/kg
[17] = species on record: Homo sapiens; assay: Selectivity ratio of IC50 for human recombinant N-terminal GST-TEV tagged CDK12 (696 to 1082 residues)/full length human CyclinK expressed in baculovirus expression system to IC50 for Inhibition of recombinant full length human N-terminal GST-fused CDK9 (1 to 372 residues)/His-tagged CyclinT1 (1 to 726 residues) expressed in baculovirus infected insect cells
[18] = Drug metabolism in human hepatocytes assessed as (1S,3R)-3-acetamido-N-(5-fluoro-4-(6-hydroxy-5,5-dimethyl-5,6-dihydro-4H-pyrrolo[1,2-b]pyrazol-3-yl)pyridin-2-yl)cyclohexanecarboxamide metabolite formation; format: ADME, cell-based, Hepatocyte
[19] = target: T1, Cyclin-dependent kinase 9 (Homo sapiens, UniProt P50750); assay: Inhibition of CDK9 in human MCF7 cells assessed as reduction in RNA Polymerase 2 CTD phosphorylation at Ser2 residues measured after 6 hrs by immunofluorescence assay; format: cell-based
T1 sequence (P50750 whole entry, the tested form may be a part): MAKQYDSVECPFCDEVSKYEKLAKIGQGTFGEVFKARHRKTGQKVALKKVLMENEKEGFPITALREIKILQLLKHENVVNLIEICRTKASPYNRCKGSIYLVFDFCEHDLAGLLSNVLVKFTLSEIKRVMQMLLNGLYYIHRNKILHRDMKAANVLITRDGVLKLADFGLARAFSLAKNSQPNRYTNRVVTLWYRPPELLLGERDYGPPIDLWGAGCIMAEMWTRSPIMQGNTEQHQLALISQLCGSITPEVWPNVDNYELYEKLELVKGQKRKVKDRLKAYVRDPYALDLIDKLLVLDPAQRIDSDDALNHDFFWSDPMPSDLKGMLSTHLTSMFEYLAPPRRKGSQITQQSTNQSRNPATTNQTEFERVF

[20] = species on record: Homo sapiens; assay: Selectivity ratio of IC50 for CDK3 (unknown origin) in presence of 5 mM ATP to IC50 for Inhibition of recombinant full length human N-terminal GST-fused CDK9 (1 to 372 residues)/His-tagged CyclinT1 (1 to 726 residues) expressed in baculovirus infected insect cells
[21] = species on record: Homo sapiens; assay: Selectivity ratio of IC50 for recombinant full length human CDK7/cyclinH1/MAT1 expressed in insect cells to IC50 for Inhibition of recombinant full length human N-terminal GST-fused CDK9 (1 to 372 residues)/His-tagged CyclinT1 (1 to 726 residues) expressed in baculovirus infected insect cells
[22] = Drug metabolism in human hepatocytes assessed as (1S,3R)-3-acetamido-N-(5-fluoro-4-(5-(3-hydroxy-2,2-dimethylpropyl)-1H-pyrazol-4-yl)pyridin-2-yl)cyclohexanecarboxamide metabolite formation; format: ADME, cell-based, Hepatocyte
[23] = Clearance in Beagle dog plasma at […], iv administered as 0.25 hrs infusion; format: ADME, organism-based, Canis lupus familiaris; conditions: dose 0.24 µmol/kg
[24] = target: Cyclin-dependent kinase 7/ cyclin H (Homo sapiens) (UniProt P51946+P50613); assay: Inhibition of human recombinant full-length CDK7/CyclinH using peptide as substrate incubated for 40 mins in presence of [gamma-33P]ATP at 1 uM by scintillation counting method relative to control; format: protein-complex assay
[25] = target: Cyclin-dependent kinase 1/cyclin B1 (Homo sapiens) (UniProt P06493+P14635); assay: Inhibition of human recombinant full-length CDK1/CyclinB expressed in Sf21 insect cells using Histone H1 as substrate at 1 uM incubated for 40 mins in presence of [gamma32P]-ATP by scintillation counting method relative to control
Chain of Cyclin-dependent kinase 1/cyclin B1 (Homo sapiens) (P06493 whole entry, looked up): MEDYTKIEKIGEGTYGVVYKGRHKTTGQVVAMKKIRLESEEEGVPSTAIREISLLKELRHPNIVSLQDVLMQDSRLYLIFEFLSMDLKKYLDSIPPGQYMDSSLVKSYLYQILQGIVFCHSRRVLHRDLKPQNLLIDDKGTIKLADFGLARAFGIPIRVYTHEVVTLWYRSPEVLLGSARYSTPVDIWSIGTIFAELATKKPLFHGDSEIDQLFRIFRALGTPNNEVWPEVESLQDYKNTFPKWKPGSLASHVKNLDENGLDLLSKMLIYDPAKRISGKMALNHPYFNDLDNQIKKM
Chain of Cyclin-dependent kinase 1/cyclin B1 (Homo sapiens) (P14635 whole entry, looked up): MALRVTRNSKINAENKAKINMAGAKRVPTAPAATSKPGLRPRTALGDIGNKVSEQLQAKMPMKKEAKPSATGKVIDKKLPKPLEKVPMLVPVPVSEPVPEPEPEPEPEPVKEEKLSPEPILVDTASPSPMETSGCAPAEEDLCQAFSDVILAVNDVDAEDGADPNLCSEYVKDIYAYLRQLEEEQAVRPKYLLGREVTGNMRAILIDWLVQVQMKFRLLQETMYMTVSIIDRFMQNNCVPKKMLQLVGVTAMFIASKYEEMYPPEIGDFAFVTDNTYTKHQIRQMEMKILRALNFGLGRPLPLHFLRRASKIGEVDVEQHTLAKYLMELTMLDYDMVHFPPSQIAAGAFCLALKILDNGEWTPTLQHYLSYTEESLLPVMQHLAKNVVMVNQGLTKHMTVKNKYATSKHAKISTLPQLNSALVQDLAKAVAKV

[26] = Volume of distribution at steady state in Beagle dog at […], iv administered over 0.25 hrs formulated as solution in DMSO/Captisol; format: ADME, organism-based, Canis lupus familiaris; conditions: in vivo, dose 0.24 µmol/kg, read-out: Vdss
[27] = target: T1, Cyclin-dependent kinase 9; assay: Inhibition of CDK9 in human MV4-11 cells assessed as induction of caspase-3/7 activation measured after 6 hrs followed by Caspase-glo reagent based assay; format: cell-based
[28] = Drug metabolism in human liver microsome assessed as (1S,3R)-3-acetamido-N-(5-chloro-4-(7-hydroxy-4,5,6,7-tetrahydropyrazolo[1,5-a]pyridin-3-yl)pyridin-2-yl)cyclohexanecarboxamide formation at 10 uM measured after 1 hr in presence of NADPH by LC-UV-MS analysis; format: ADME; conditions: microsomes
[29] = Drug metabolism in human liver microsome assessed as 4-(4-(2-((1S,3R)-3-acetamidocyclohexanecarboxamido)-5-chloropyridin-4-yl)-1H-pyrazol-5-yl)butanoic acid formation at 10 uM measured after 1 hr in presence of NADPH by LC-UV-MS analysis; format: ADME; conditions: microsomes

Chain of Glycogen synthase kinase-3 alpha (P49840 whole entry): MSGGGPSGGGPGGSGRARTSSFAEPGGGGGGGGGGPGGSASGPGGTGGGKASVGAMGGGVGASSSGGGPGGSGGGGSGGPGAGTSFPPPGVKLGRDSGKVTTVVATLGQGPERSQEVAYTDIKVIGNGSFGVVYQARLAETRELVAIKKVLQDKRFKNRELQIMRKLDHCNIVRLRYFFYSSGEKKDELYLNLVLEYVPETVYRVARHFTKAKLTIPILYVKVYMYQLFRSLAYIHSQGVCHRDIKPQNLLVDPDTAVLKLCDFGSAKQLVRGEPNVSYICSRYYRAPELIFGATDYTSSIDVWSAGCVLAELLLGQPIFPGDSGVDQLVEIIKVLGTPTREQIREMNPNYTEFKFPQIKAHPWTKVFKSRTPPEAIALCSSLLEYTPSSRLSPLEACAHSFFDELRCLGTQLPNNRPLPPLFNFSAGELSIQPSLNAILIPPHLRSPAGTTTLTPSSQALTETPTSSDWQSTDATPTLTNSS

CC(=O)N[C@@H]1CCC[C@H](C(=O)Nc2cc(-c3cnn4c3CC(C)(C)C4)c(Cl)cn2)C1 [ZEMIRCICLIB]
IC50 [1]: 187 nM
clearance [2]: 16 mL/min/kg
inhibition [3]: 82%
Drug metabolism [4]: Metabolite_Detected
solubility thermodynamic [5]: 50 µg/mL (≈ 116 µM)
Drug metabolism [6]: Metabolite_Detected
Vd [7]: 1.3 L/kg
Drug metabolism [8]: Metabolite_Detected
inhibition [9]: 80%
IC50 [10]: 6.66 µM
inhibition [11]: 85%
Activity [12]: 65%
IC50 [13]: 2800 nM

CC(=O)N[C@@H]1CCC[C@H](C(=O)Nc2cc(-c3cnn4c3CC(C)(C)C4)c(F)cn2)C1
Ratio IC50 [14]: 16
Vd ([15]; dose 2.4 µmol/kg): 0.49 L/kg
clearance [16]: 70 mL/min/kg
Ratio IC50 [17]: 16
Drug metabolism [18]: Metabolite_Detected
IC50 [19]: 25 nM
solubility thermodynamic [5]: 57 µg/mL (≈ 138 µM)
Ratio IC50 [20]: 5
Ratio IC50 [21]: 16
Drug metabolism [22]: Metabolite_Detected
clearance at 0.25 h [23]: 53 mL/min/kg
inhibition [24]: 92%
inhibition [25]: 100%
Vd at 0.25 h [26]: 1.2 L/kg
EC50 [27]: 29 nM

CC(=O)N[C@@H]1CCC[C@H](C(=O)Nc2cc(-c3cnn4c3CCCC4)c(Cl)cn2)C1
Vd ([15]; dose 4.8 µmol/kg): 0.65 L/kg
Drug metabolism [28]: Metabolite_Detected
Drug metabolism [29]: Metabolite_Detected
inhibition [25]: 96%
